According to PubChem BioAssay (NCI):
Several values for one entry are separate records, joined by “and”; a condition that tells them apart may be missing. Identical values can stand only once.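 Interpolation was linear, between the two tested concentrations surrounding the appropriate level; five concentrations were tested over 48 hours in 96-well plates. Abbreviation: GI50, concentration required for 50% inhibition of growth. TGI marks complete inhibition of growth.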

The compounds below were run on M14 melanoma (assay: NCI anticancer screen, dose series, 48 h).

Q: With COC(=O)C1=COC(C)C2CN3CCc4c([nH]c5ccccc45)C3CC12 (stereo not drawn) as the compound, how does the GI50 read?
A: 38400 nM and > 100000 nM

Q: And the TGI?
A: > 100 µM

Q: O=C(NCc1ccc(Cn2c(=O)sn(-c3ccccc3)c2=O)cc1)OCc1ccc2cccc(O)c2n1 was tested. Which GI50 did it give?
A: 647 nM

Q: What about the TGI of the same compound?
A: 2.03 µM

Q: For COC(c1ccc(C(C)(C)C)cc1)(c1ccc(C(C)(C)C)cc1)c1ccc(C(C)(C)C)cc1, which TGI is on record?
A: > 100 µM

Q: What does the source list for CC(C)c1[nH]nc2c1N=C(c1ccccc1Cl)c1cc([N+](=O)[O-])ccc1N2?
A: GI50: 7630 nM; TGI: > 25 µM

Q: With Nc1cc2c(cc1Br)[nH]c(=O)c1ccccc12 as the compound, how does the GI50 read?
A: 2920 nM

Q: And the TGI?
A: 10 µM

Q: Which results are given for COc1ccc(-c2nccn2-c2ccc(OC)cc2)cc1?
A: GI50: 20500 nM; TGI: 56.7 µM

Q: With O=C(/C=C/c1ccccc1)c1ccccc1 as the compound, how does the TGI read?
A: > 10 µM

Q: How did the GI50 turn out when CC(C)[C@H](O)C(=O)N[C@@H](C)C(=O)N[C@@H]1C(=O)N(C)CCc2ccccc21 was run?
A: > 100000 nM

Q: What about the TGI of the same compound?
A: > 100 µM

Q: C=CC(=O)N1CN(C(=O)C=C)CN(C(=O)C=C)C1 was tested. Which GI50 did it give?
A: 2850 nM

Q: What about the TGI of the same compound?
A: 7.86 µM

Q: Which results are given for COc1ccc(-c2cnnn2-c2nonc2-n2cccc2)cc1?
A: GI50: 209 nM; TGI: 6.62 µM

Q: How did the GI50 turn out when C#CCOc1cccc(Nc2ncnc3c(NC(=O)C=C)cccc23)c1 was run?
A: 19400 nM

Q: What about the TGI of the same compound?
A: 67.8 µM

Q: With CO[C@H]1Nc2c(ccc(C)c2O)C(=O)N2C=C(/C=C/C(N)=O)C[C@@H]12 as the compound, how does the TGI read?
A: 0.0406 µM

Q: What does the source list for O=C(/C(=C\c1c(-c2ccccc2)[nH]c2ccccc12)S(=O)(=O)c1ccccc1)c1ccccc1?
A: GI50: 15600 nM; TGI: > 100 µM

Q: For COc1ccc(C(=O)c2cc(OC)c(OC)c(OC)c2)cc1OC, which TGI is on record?
A: > 100 µM

Q: How did the TGI turn out when CCNC(=O)/C(=C/c1ccc(OC)cc1)c1cc(OC)c(OC)c(OC)c1 was run?
A: > 100 µM

Q: For CCCc1cc(=O)n2c(C(=O)Nc3ccc(Cl)cc3C)c(C(=O)Nc3ccc(F)cc3)sc2n1, which GI50 is on record?
A: 4670 nM

Q: What about the TGI of the same compound?
A: 23.7 µM

Q: For COc1ccc(-c2ccc3c(N4CCOC[C@@H]4C)nc(N4CCOC[C@@H]4C)nc3n2)cc1CO, which GI50 is on record?
A: 5.17 nM and 26.2 nM

Q: And the TGI?
A: 20.5 µM

Q: How did the GI50 turn out when N[C@H](CCC(=O)N[C@@H](Cc1c[nH]c2ccccc12)C(=O)O)C(=O)O was run?
A: > 100000 nM

Q: What about the TGI of the same compound?
A: > 100 µM

Q: Which GI50 does the source give for COc1ccc(-c2nc(-c3cc(OC)cc(OC)c3)[nH]c2-c2ccc(OC)cc2)cc1 here?
A: 8370 nM

Q: What about the TGI of the same compound?
A: > 100 µM

Q: For CN(C)CCNCCN, which TGI is on record?
A: > 100 µM

Q: How did the GI50 turn out when COC(=O)c1cc2c(o1)-c1nccc3c1c(nc1ccccc13)C2=O was run?
A: 2310 nM

Q: And the TGI?
A: 10.2 µM

Q: For Nc1ccccc1O.O.O=C(O)C1[O][Sb][O]C1C(=O)O (stereo not drawn), which GI50 is on record?
A: 11500 nM

Q: And the TGI?
A: 25.9 µM

Q: How did the GI50 turn out when O=C(c1ccco1)c1c(C(F)(F)F)n([O-])c2ccc(C(F)(F)F)cc2[n+]1=O was run?
A: 1040 nM

Q: And the TGI?
A: 2.48 µM

Q: Which TGI does the source give for OC(c1cc(-c2ccc(C(F)(F)F)cc2)nc(C(F)(F)F)c1)C1CCCCN1 (stereo not drawn) here?
A: 3.12 µM and 3.14 µM

Q: Which TGI does the source give for CC(C)CC(C/C=C1/CC(CO)(COC(=O)C(C)(C)C)OC1=O)CC(C)C (stereo not drawn) here?
A: 28 µM and 26.2 µM

Q: How did the GI50 turn out when O=C(Nc1cc(Nc2ncccc2-c2ncnc3nc[nH]c23)ccc1F)c1cc(C(F)(F)F)cc(C(F)(F)F)c1 was run?
A: 330 nM

Q: What about the TGI of the same compound?
A: 1.6 µM

Q: What does the source list for CC1(C)CN=C(NN=C(/C=C/c2ccc(C(F)(F)F)cc2)/C=C/c2ccc(C(F)(F)F)cc2)NC1?
A: GI50: 1780 nM; TGI: 3.5 µM

Each compound was assayed on 786-0 renal (assay: NCI anticancer screen, dose series, 48 h).

Q: How did the GI50 turn out when COC(=O)C1=COC(C)C2CN3CCc4c([nH]c5ccccc45)C3CC12 (stereo not drawn) was run?
A: 18.8 µM and 54.8 µM

Q: What about the TGI of the same compound?
A: 40.2 µM and > 100 µM

Q: How did the GI50 turn out when O=C(NCc1ccc(Cn2c(=O)sn(-c3ccccc3)c2=O)cc1)OCc1ccc2cccc(O)c2n1 was run?
A: 0.484 µM

Q: And the TGI?
A: 1.08 µM

Q: Which TGI does the source give for COC(c1ccc(C(C)(C)C)cc1)(c1ccc(C(C)(C)C)cc1)c1ccc(C(C)(C)C)cc1 here?
A: > 100 µM

Q: Which results are given for CC(C)c1[nH]nc2c1N=C(c1ccccc1Cl)c1cc([N+](=O)[O-])ccc1N2?
A: GI50: 5.74 µM; TGI: > 24 µM

Q: For Nc1cc2c(cc1Br)[nH]c(=O)c1ccccc12, which GI50 is on record?
A: 6.16 µM

Q: What about the TGI of the same compound?
A: > 100 µM

Q: With COc1ccc(-c2nccn2-c2ccc(OC)cc2)cc1 as the compound, how does the GI50 read?
A: 21.9 µM

Q: What about the TGI of the same compound?
A: 60.6 µM

Q: O=C(/C=C/c1ccccc1)c1ccccc1 was tested. Which TGI did it give?
A: > 10 µM

Q: For CC(C)[C@H](O)C(=O)N[C@@H](C)C(=O)N[C@@H]1C(=O)N(C)CCc2ccccc21, which GI50 is on record?
A: > 100 µM

Q: What about the TGI of the same compound?
A: > 100 µM

Q: For C=CC(=O)N1CN(C(=O)C=C)CN(C(=O)C=C)C1, which GI50 is on record?
A: 7.15 µM

Q: And the TGI?
A: 24.7 µM

Q: With COc1ccc(-c2cnnn2-c2nonc2-n2cccc2)cc1 as the compound, how does the GI50 read?
A: 0.488 µM

Q: What about the TGI of the same compound?
A: > 34 µM

Q: With C#CCOc1cccc(Nc2ncnc3c(NC(=O)C=C)cccc23)c1 as the compound, how does the GI50 read?
A: 19.1 µM

Q: What about the TGI of the same compound?
A: 52.7 µM

Q: Which TGI does the source give for CO[C@H]1Nc2c(ccc(C)c2O)C(=O)N2C=C(/C=C/C(N)=O)C[C@@H]12 here?
A: 2.03 µM

Q: With O=C(/C(=C\c1c(-c2ccccc2)[nH]c2ccccc12)S(=O)(=O)c1ccccc1)c1ccccc1 as the compound, how does the GI50 read?
A: > 100 µM

Q: And the TGI?
A: > 100 µM

Q: For COc1ccc(C(=O)c2cc(OC)c(OC)c(OC)c2)cc1OC, which TGI is on record?
A: > 100 µM

Q: For CCNC(=O)/C(=C/c1ccc(OC)cc1)c1cc(OC)c(OC)c(OC)c1, which TGI is on record?
A: > 100 µM

Q: CCCc1cc(=O)n2c(C(=O)Nc3ccc(Cl)cc3C)c(C(=O)Nc3ccc(F)cc3)sc2n1 was tested. Which GI50 did it give?
A: 2.36 µM

Q: What about the TGI of the same compound?
A: 5.96 µM

Q: COc1ccc(-c2ccc3c(N4CCOC[C@@H]4C)nc(N4CCOC[C@@H]4C)nc3n2)cc1CO was tested. Which GI50 did it give?
A: 0.00494 µM and 0.0416 µM

Q: What about the TGI of the same compound?
A: > 45.1 µM

Q: Which results are given for N[C@H](CCC(=O)N[C@@H](Cc1c[nH]c2ccccc12)C(=O)O)C(=O)O?
A: GI50: > 100 µM; TGI: > 100 µM

Q: COc1ccc(-c2nc(-c3cc(OC)cc(OC)c3)[nH]c2-c2ccc(OC)cc2)cc1 was tested. Which GI50 did it give?
A: > 100 µM

Q: What about the TGI of the same compound?
A: > 100 µM

Q: With CN(C)CCNCCN as the compound, how does the TGI read?
A: > 100 µM

Q: Which GI50 does the source give for COC(=O)c1cc2c(o1)-c1nccc3c1c(nc1ccccc13)C2=O here?
A: 2.93 µM

Q: And the TGI?
A: 14 µM

Q: With Nc1ccccc1O.O.O=C(O)C1[O][Sb][O]C1C(=O)O (stereo not drawn) as the compound, how does the GI50 read?
A: 10.5 µM

Q: What about the TGI of the same compound?
A: 26 µM

Q: How did the GI50 turn out when O=C(c1ccco1)c1c(C(F)(F)F)n([O-])c2ccc(C(F)(F)F)cc2[n+]1=O was run?
A: 0.426 µM

Q: And the TGI?
A: 0.831 µM

Q: How did the GI50 turn out when OC(c1cc(-c2ccc(C(F)(F)F)cc2)nc(C(F)(F)F)c1)C1CCCCN1 (stereo not drawn) was run?
A: 1.57 µM

Q: And the TGI?
A: 3.16 µM and 3.48 µM

Q: Which results are given for CC(C)CC(C/C=C1/CC(CO)(COC(=O)C(C)(C)C)OC1=O)CC(C)C (stereo not drawn)?
A: GI50: 1.72 µM and 7.83 µM; TGI: 17.7 µM and 26.3 µM

Q: How did the GI50 turn out when O=C(Nc1cc(Nc2ncccc2-c2ncnc3nc[nH]c23)ccc1F)c1cc(C(F)(F)F)cc(C(F)(F)F)c1 was run?
A: 3.55 µM

Q: And the TGI?
A: 9.52 µM

Q: Which results are given for CC1(C)CN=C(NN=C(/C=C/c2ccc(C(F)(F)F)cc2)/C=C/c2ccc(C(F)(F)F)cc2)NC1?
A: GI50: 1.78 µM; TGI: 3.42 µM

Each compound was assayed on KM12 colon (assay: NCI anticancer screen, dose series, 48 h).

Q: How did the GI50 turn out when COC(=O)C1=COC(C)C2CN3CCc4c([nH]c5ccccc45)C3CC12 (stereo not drawn) was run?
A: 17.8 µM and > 100 µM

Q: And the TGI?
A: 42.6 µM and > 100 µM

Q: Which results are given for O=C(NCc1ccc(Cn2c(=O)sn(-c3ccccc3)c2=O)cc1)OCc1ccc2cccc(O)c2n1?
A: GI50: 1.54 µM; TGI: 3.02 µM

Q: How did the TGI turn out when COC(c1ccc(C(C)(C)C)cc1)(c1ccc(C(C)(C)C)cc1)c1ccc(C(C)(C)C)cc1 was run?
A: > 100 µM

Q: For CC(C)c1[nH]nc2c1N=C(c1ccccc1Cl)c1cc([N+](=O)[O-])ccc1N2, which GI50 is on record?
A: 1.79 µM

Q: And the TGI?
A: 6.31 µM

Q: What does the source list for Nc1cc2c(cc1Br)[nH]c(=O)c1ccccc12?
A: GI50: 3.4 µM; TGI: 11.2 µM

Q: Which results are given for COc1ccc(-c2nccn2-c2ccc(OC)cc2)cc1?
A: GI50: 17.9 µM; TGI: 65.3 µM

Q: Which TGI does the source give for O=C(/C=C/c1ccccc1)c1ccccc1 here?
A: > 10 µM

Q: CC(C)[C@H](O)C(=O)N[C@@H](C)C(=O)N[C@@H]1C(=O)N(C)CCc2ccccc21 was tested. Which GI50 did it give?
A: > 100 µM

Q: And the TGI?
A: > 100 µM

Q: For C=CC(=O)N1CN(C(=O)C=C)CN(C(=O)C=C)C1, which GI50 is on record?
A: 18.5 µM

Q: What about the TGI of the same compound?
A: 38.6 µM

Q: Which GI50 does the source give for COc1ccc(-c2cnnn2-c2nonc2-n2cccc2)cc1 here?
A: 0.16 µM

Q: And the TGI?
A: 8.53 µM

Q: Which GI50 does the source give for C#CCOc1cccc(Nc2ncnc3c(NC(=O)C=C)cccc23)c1 here?
A: 20.3 µM

Q: And the TGI?
A: > 100 µM

Q: CO[C@H]1Nc2c(ccc(C)c2O)C(=O)N2C=C(/C=C/C(N)=O)C[C@@H]12 was tested. Which TGI did it give?
A: 7.2 µM

Q: O=C(/C(=C\c1c(-c2ccccc2)[nH]c2ccccc12)S(=O)(=O)c1ccccc1)c1ccccc1 was tested. Which GI50 did it give?
A: 5.06 µM

Q: What about the TGI of the same compound?
A: > 100 µM

Q: With COc1ccc(C(=O)c2cc(OC)c(OC)c(OC)c2)cc1OC as the compound, how does the TGI read?
A: 28.9 µM
